From PubChem BioAssay (NCI)
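The compound was tested at five concentrations on cells cultured in 96-well plates, with a 48-hour exposure period. TGI marks complete inhibition of growth.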

Key:
Test in all cases: NCI-60 cell line screen, 48 h
[1] = system: SK-MEL-28 melanoma
[2] = system: DMS 114 small cell lung
[3] = system: UACC-62 melanoma
[4] = system: K-562 leukemia
[5] = system: TK-10 renal
[6] = system: MOLT-4 leukemia
[7] = system: SN12C renal
[8] = system: NCI-H226 lung
[9] = system: DMS 273 small cell lung
[10] = system: M14 melanoma
[11] = system: HCT-15 colon
[12] = system: OVCAR-4 ovarian
[13] = system: NCI-H23 lung
[14] = system: A498 renal
[15] = system: UACC-257 melanoma
[16] = system: SF-268 CNS
[17] = system: SW-620 colon
[18] = system: DLD-1 colon
[19] = system: OVCAR-5 ovarian
[20] = system: RPMI-8226 leukemia
[21] = system: HT29 colon
[22] = system: OVCAR-3 ovarian
[23] = system: HOP-18 NSCLC
[24] = system: LOX IMVI melanoma
[25] = system: HCC-2998 colon
[26] = system: LXFL 529 NSCLC
[27] = system: U251 CNS
[28] = system: A549 NSCLC
[29] = system: OVCAR-8 ovarian
[30] = system: CAKI-1 renal
[31] = system: M19-MEL melanoma
[32] = system: ACHN renal
[33] = system: SK-MEL-5 melanoma
[34] = system: COLO 205 colon
[35] = system: 786-0 renal
[36] = system: NCI-H460 lung
[37] = system: HOP-62 NSCLC
[38] = system: SNB-19 CNS
[39] = system: SF-295 CNS
[40] = system: UO-31 renal
[41] = system: SR leukemia
[42] = system: HOP-92 NSCLC
[43] = system: IGROV1 ovarian
[44] = system: SK-OV-3 ovarian
[45] = system: MALME-3M melanoma
[46] = system: HL-60(TB) leukemia
[47] = system: KM20L2 colon
[48] = system: CCRF-CEM leukemia
[49] = system: HCT-116 colon
[50] = system: EKVX NSCLC
[51] = system: MCF7 breast
[52] = system: NCI/ADR-RES ovarian
[53] = system: MDA-N
[54] = system: SK-MEL-2 melanoma
[55] = system: HS 578T breast
[56] = system: SNB-75 CNS
[57] = system: SF-539 CNS
[58] = system: KM12 colon
[59] = system: BT-549 breast
[60] = system: DU-145 prostate
[61] = system: SNB-78 CNS
[62] = system: NCI-H522 lung
[63] = system: MDA-MB-231 breast
[64] = system: T-47D breast
[65] = system: MDA-MB-435
[66] = system: XF 498 CNS
[67] = system: RXF 393 renal
[68] = system: PC-3 prostate

Measured: TGI

O=C(O)CSc1ccc2[nH]c3ccccc3c(=O)c2c1
not listed: [50] | [51] | [52] | [53] | [54] | [55] | [56] | [57] | [58] | [59] | [60] | [61] | [62] | [63] | [64] | [65] | [66] | [67] | [68]
> 100 µM: all other assays above

C[C@]12C=CC(=O)C=C1[C@@H](F)C[C@H]1[C@@H]3CC[C@](O)(C(=O)CO)[C@@]3(C)C[C@H](O)[C@@]12F
not listed: [23]
> 100 µM: all other assays above
